Results from US20140364316A1, “COMPOSITION FOR IMPROVING RESISTANCE TO ENVIRONMENTAL STRESS OF PLANT AND METHOD FOR IMPROVING RESISTANCE TO ENVIRONMENTAL STRESS OF PLANT” (The Shizuoka Chamber of Commerce and Industry, priority 2012, published 2014).

What was measured:
Arabidopsis thaliana = test: Evaluation of high temperature resistance 2 (35° C. for 1 hour and 45° C. for 2 hours); type: in vivo; details: 4th day after high temperature exposure
Protocol: As a sanguinarine reagent available on the market, a sanguinarine chloride hydrate (S5890-25MG manufactured by Sigma-Aldrich Japan K.K.) was obtained, the sanguinarine chloride hydrate was dissolved in water such that the sanguinarine concentration is 0.2 ppm, 2 ppm, or 20 ppm, and thus a sample liquid for each test plot was respectively prepared. In addition, as a sample liquid for the control plot, a 0.5% DMSO solution was prepared. By using these sample liquids, the following tests were performed.
Seeds of Arabidopsis thaliana were sowed and cultivated in a rockwool cube which had been saturated with a diluent of the HYPONEX (registered trademark) diluted by 1,000 times. The cultivation environment conditions were a cycle of [bright place for 16 hours+dark place for 8 hours], and a temperature of 22° C. On around the strain of Arabidopsis thaliana on the 14th day after the start of cultivation, a sample liquid composed of an aqueous sanguinarine solution that had been adjusted to various concentrations, and a 0.5% DMSO solution for the control plot were respectively applied dropwise using a dropper. The dropping amount was set to 100 μL per a plant body. Therefore, the sanguinarine amount applied per a plant body in each test plot was 0.02 μg in the test plot of 0.2 ppm, 0.2 μg in the test plot of 2 ppm, and 0.002 mg in the test plot of 20 ppm. After the dropping, under the initial cultivation environment conditions, the cultivation was continued for 2 days, then the room temperature was increased to 35° C., and exposure was performed for 1 hour in a bright place. Further, the room temperature was increased to 45° C., and high temperature exposure was performed for 2 hours in a dark place. […]
The state of the grown true leaves of Arabidopsis thaliana on the 4th day after the high temperature exposure under the above conditions was visually evaluated on a four level scale (index, 3: plant death, 2: partial plant death, 1: partial whitening, and 0: normal), and by assigning the values to the following equation, the average degree of damage was calculated. […]

rats = details: Non Patent Literature 1; cited from earlier work

## C[n+]1cc2c3c(ccc2c2ccc4cc5c(cc4c21)OCO5)OCO3 [sanguinarine]
Arabidopsis thaliana; 0.2 ppm to 20 ppm, FIG. 4
  average degree of damage with increasing dosage: average degree of damage of Arabidopsis thaliana is reduced
Arabidopsis thaliana; sanguinarine 0.2 ppm, 2 ppm or 20 ppm, 100 μL per plant body, FIG. 3, FIG. 4
  growth (appearance and average degree of damage) compared with control plot (0.5% DMSO solution): growth was relatively favorable
Arabidopsis thaliana; sanguinarine 20 ppm (0.002 mg per plant body)
  average degree of damage: less than 10%
rats
  physiological disorders after administration: disorders of particular note were not observed
